We go through 1 compound from US8809526B2, “Synthesis of cyclopentaquinazolines” (ONYX Pharmaceuticals, Inc., priority 2010, dated 2014).

The structures appear in SMILES notation. In brackets after ≈: the same amount, converted by molar mass.

This series in a line: physchem. The following applies: organic solvent or mixture. It is filed as physicochemical. Here is the method: A 22 L, 3 neck flask was equipped with an overhead stirrer, a N2 inlet, and a type-J Teflon® covered thermocouple. The flask was purged with N2 and charged with the crude alcohol 12 prepared above, acetonitrile (7 L) and triethylamine (1400 mL, 10.0 mol). The batch was cooled to ˜10° C.-15° C. using a cold water bath. To the resulting yellow-green suspension was added solid TBDMSCl (1125 g, 7.50 mol), portionwise over ˜20 minutes. The addition was mildly exothermic causing the internal reaction temperature to rise to ˜20° C. After the addition was complete the reaction was stirred overnight at 20° C. under an atmosphere of N2. The following morning the reaction was judged to be >95% complete by TLC or HPLC. The dark green reaction mixture was filtered through a plasticware filter pot (24″×11″) prepacked with gravity grade silica gel (3 kg-slurried in acetonitrile) and a top and bottom layer of celite 21 (500 grams each). The filter pot was rinsed with acetonitrile (10 L, ACS grade) prior to adding the reaction mixture to the pot. Once the reaction mixture containing green solids was added, the filter pot was rinsed with acetonitrile (80 L, ACS grade), collecting 10 L cuts. The washing operation was monitored by TLC until no more product was detected in the washings. This was concentrated in vacuo to afford 2.2 kg of crude which needed to be purified further by silica gel chromatography. […]

Broadly, the solubility is the dissolved amount per volume that the medium holds. On to `CC(C)(C)[Si](C)(C)OCc1nc2cc3c(cc2c(=O)[nH]1)C(=O)CC3` [compound 7, 2-(t-Butyldimethylsiloxymethyl)-4,6-dioxo-3,4,7,8-tetrahydro-3H-cyclopenta[g]quinazoline], for which the solubility was 15 mg/mL (≈ 43.5 mM) (solubility in 1:1 hexanes:ethyl acetate) and about 25 mg/mL (≈ 72.6 mM) (solubility in ethyl acetate).
